In US7981930B2, “Compositions and kits for treating influenza” (Adamas Pharmaceuticals, Inc., priority 2007, dated 2011):

System: wild type A/Albany (H3N2) strain
Experiment: Hollow fiber system, MDCK cells, continuous infusion 168 hours, viral titer and sequencing
Format: cell-based, Influenza A virus (H3N2)
Conditions: monotherapy arms vs. triple high dose arm

CCOC(=O)C1=C[C@@H](OC(CC)CC)[C@H](NC(C)=O)[C@@H](N)C1 [Oseltamivir]
formation of drug resistance (M2, NA sequencing): appreciable formation of M2 and NA drug resistance
